In US6979560B1, “Eschericha bacteria overexpressing the yahn gene for feedback-insensitive amino acid production” (priority 1998, dated 2005):
Values after ≈ are worked out from the molar mass of the structure shown. Like-named read-outs stand apart in the source and are kept apart here.

Columns and labels:
Assay type in all cases: cell-based
E. coli TG1/pUC21 = assay: MIC of amino acids and analogues on M9 agar, control strain TG1/pUC21; conditions: for MIC: Escherichia coli
Description: (§1) Therefore, the effect of the pYEAS, pYAHN, PYFIK, and pYGGA plasmids on susceptibility of the strain TG1 to some amino acids and amino acid analogues was tested. Overnight cultures of the E. coli strains TG1/pYEAS, TG1/pYAHN, TG1/pYFIK, TG1/pYGGA and of the control strains TG1/pUC21, TG1/pUC19 and TG1/pOK12 grown in M9 minimal medium with an appropriate antibiotic on a rotary shaker (10^9 cfu/ml) were diluted 1:100 in M9 minimal medium and grown for 5 h in the same medium. Then the log phase cultures thus obtained were diluted and about 10^4 alive cells were applied to well-dried test plates with M9 agar containing doubling increments of amino acids or analogues. Thus the minimum inhibition concentration (MIC) of these compounds were examined.

E. coli TG1/pYEAS = assay: microbe, parasite or virus in culture; conditions: for MIC: Escherichia coli, TG1/PYEAS, read-out: MIC (μg/ml) for E. coli TG1, harboring the plasmid pYEAS
Description: as §1, with “The homology of the yeaS, yfiK, yahN and yggA gene products with the lysine transporter, LysE, of Corynebacterium glutamicum (Vrljic et al., Mol. Microbiol.,22, 815-826, 1996) and RhtB protein involved in homoserine excretion, indicates the analogues function for these proteins. It is well known that the increased expression of the genes involved in antibiotic and heavy metal efflux increases the level of resistance to the drugs (Nikaido, H. J. Bacteriology, 178, 5853-5859, 1996). Therefore,” for “Therefore,”

E. coli TG1/pYGGA = assay: microbe, parasite or virus in culture; conditions: for MIC: Escherichia coli, TG1/PYGGA, read-out: MIC (μg/ml) for E. coli TG1, harboring the plasmid pYGGA
Description: as §1, with “The homology of the yeaS, yfiK, yahN and yggA gene products with the lysine transporter, LysE, of Corynebacterium glutamicum (Vrljic et al., Mol. Microbiol.,22, 815-826, 1996) and RhtB protein involved in homoserine excretion, indicates the analogues function for these proteins. It is well known that the increased expression of the genes involved in antibiotic and heavy metal efflux increases the level of resistance to the drugs (Nikaido, H. J. Bacteriology, 178, 5853-5859, 1996). Therefore,” for “Therefore,”

E. coli TG1/pYAHN = assay: microbe, parasite or virus in culture; conditions: for MIC: Escherichia coli, TG1/PYAHN, read-out: MIC (μg/ml) for E. coli TG1, harboring the plasmid pYAHN
Description: as §1, with “The homology of the yeaS, yfiK, yahN and yggA gene products with the lysine transporter, LysE, of Corynebacterium glutamicum (Vrljic et al., Mol. Microbiol.,22, 815-826, 1996) and RhtB protein involved in homoserine excretion, indicates the analogues function for these proteins. It is well known that the increased expression of the genes involved in antibiotic and heavy metal efflux increases the level of resistance to the drugs (Nikaido, H. J. Bacteriology, 178, 5853-5859, 1996). Therefore,” for “Therefore,”

E. coli TG1/pYFIK = assay: microbe, parasite or virus in culture; conditions: for MIC: Escherichia coli, TG1/PYFIK, read-out: MIC (μg/ml) for E. coli TG1, harboring the plasmid pYFIK
Description: as §1, with “The homology of the yeaS, yfiK, yahN and yggA gene products with the lysine transporter, LysE, of Corynebacterium glutamicum (Vrljic et al., Mol. Microbiol.,22, 815-826, 1996) and RhtB protein involved in homoserine excretion, indicates the analogues function for these proteins. It is well known that the increased expression of the genes involved in antibiotic and heavy metal efflux increases the level of resistance to the drugs (Nikaido, H. J. Bacteriology, 178, 5853-5859, 1996). Therefore,” for “Therefore,”

[1] = E. coli TG1 harboring pUC21 (control vector), M9 agar, doubling increments, read-out: MIC (μg/ml) for E. coli TG1, harboring the plasmid pUC21

SMILES | MIC (E. coli TG1/pUC21; [1]) | MIC (E. coli TG1/pYEAS) | MIC (E. coli TG1/pYGGA) | MIC (E. coli TG1/pYAHN) | MIC (E. coli TG1/pYFIK) | MIC (μg/ml) for E. coli TG1, harboring the plasmid pUC21 (E. coli TG1/pUC21; E. coli TG1 harboring pUC21 (control vector), M9 agar, doubling increments) | MIC (μg/ml) for E. coli TG1, harboring the plasmid pYEAS (E. coli TG1/pYEAS; E. coli TG1 harboring pYEAS (multicopy yeaS), M9 agar, doubling increments) | MIC (μg/ml) for E. coli TG1, harboring the plasmid pYGGA (E. coli TG1/pYGGA; E. coli TG1 harboring pYGGA (multicopy yggA), M9 agar, doubling increments) | MIC (μg/ml) for E. coli TG1, harboring the plasmid pYAHN (E. coli TG1/pYAHN; E. coli TG1 harboring pYAHN (multicopy yahN), M9 agar, doubling increments) | MIC (μg/ml) for E. coli TG1, harboring the plasmid pYFIK (E. coli TG1/pYFIK; E. coli TG1 harboring pYFIK (multicopy yfiK), M9 agar, doubling increments) | MIC (E. coli TG1/pUC21; TG1/PUC21, read-out: MIC (μg/ml) for E. coli TG1, harboring the plasmid pUC21)
CN(C)CC(N)C(=O)O (racemic) [4-aza-DL-leucine] | 100 µg/mL | 100 µg/mL (≈ 0.757 mM) | 100 µg/mL (≈ 0.757 mM) | 100 µg/mL (≈ 0.757 mM) | 100 µg/mL (≈ 0.757 mM) |  |  |  |  |  | 
NCCSC[C@H](N)C(=O)O [AEC, S-(2-aminoethyl)-L-cysteine] | 5 µg/mL | 5 µg/mL (≈ 0.0304 mM) | 200 µg/mL (≈ 1.22 mM) | 5 µg/mL (≈ 0.0304 mM) | 10 µg/mL (≈ 0.0609 mM) |  |  |  |  |  | 
CCC(O)C(N)C(=O)O (stereo not drawn) [AHVA, α-amino-β-hydroxyvaleric-acid] | 100 µg/mL | 100 µg/mL (≈ 0.751 mM) | 100 µg/mL (≈ 0.751 mM) | 100 µg/mL (≈ 0.751 mM) | 200 µg/mL (≈ 1.5 mM) |  |  |  |  |  | 
N=C(N)NCCC[C@H](N)C(=O)O [L-arginine] | 10000 µg/mL | 10000 µg/mL (≈ 57.4 mM) | 20000 µg/mL (≈ 115 mM) | 10000 µg/mL (≈ 57.4 mM) | 10000 µg/mL (≈ 57.4 mM) |  |  |  |  |  | 
N[C@@H](CCC(=O)O)C(=O)[O-].[Na+] [L-glutamate (Na salt)] |  |  |  |  |  | 5000 μg/ml | 20000 μg/ml | 5000 μg/ml | 5000 μg/ml | 10000 μg/ml | 
N[C@@H](Cc1c[nH]cn1)C(=O)O [L-histidine] | 5000 µg/mL | 30000 µg/mL (≈ 193 mM) | 5000 µg/mL (≈ 32.2 mM) | 5000 µg/mL (≈ 32.2 mM) | 10000 µg/mL (≈ 64.5 mM) |  |  |  |  |  | 
N[C@@H](CCO)C(=O)O [L-homoserine] | 500 µg/mL | 1000 µg/mL (≈ 8.39 mM) | 500 µg/mL (≈ 4.2 mM) | 500 µg/mL (≈ 4.2 mM) | 1000 µg/mL (≈ 8.39 mM) |  |  |  |  |  | 
NCCCC[C@H](N)C(=O)O [L-lysine] |  | 7500 µg/mL (≈ 51.3 mM) | 15000 µg/mL (≈ 103 mM) | 5000 µg/mL (≈ 34.2 mM) | 7500 µg/mL (≈ 51.3 mM) |  |  |  |  |  | 5000 µg/mL
O=C(O)[C@@H]1CCCN1 [L-proline] | 1000 µg/mL | 2000 µg/mL (≈ 17.4 mM) | 1000 µg/mL (≈ 8.69 mM) | 2000 µg/mL (≈ 17.4 mM) | 5000 µg/mL (≈ 43.4 mM) |  |  |  |  |  | 
C[C@@H](O)[C@H](N)C(=O)O [L-threonine] | 30000 µg/mL | 50000 µg/mL (≈ 420 mM) | 30000 µg/mL (≈ 252 mM) | 30000 µg/mL (≈ 252 mM) | 40000 µg/mL (≈ 336 mM) |  |  |  |  |  | 
CC(C)[C@H](N)C(=O)O [L-valine] | 0.5 µg/mL | 0.5 µg/mL (≈ 0.00427 mM) | 0.5 µg/mL (≈ 0.00427 mM) | 0.5 µg/mL (≈ 0.00427 mM) | 0.5 µg/mL (≈ 0.00427 mM) |  |  |  |  |  | 
CCC(N)C(=O)O (stereo not drawn) [α-aminobutyric acid] | 2500 µg/mL | > 10000 µg/mL | 2500 µg/mL (≈ 24.2 mM) | 2500 µg/mL (≈ 24.2 mM) | 5000 µg/mL (≈ 48.5 mM) |  |  |  |  |  | 
